In PubChem BioAssay (NCI) one finds GI50 and TGI data, which are given here for ten compounds.

Test systems include NCI-H226 lung; UO-31 renal; DU-145 prostate; OVCAR-3 ovarian; SR leukemia; RXF 393 renal; K-562 leukemia; OVCAR-8 ovarian; SK-MEL-5 melanoma; HCT-15 colon.
Holding throughout (assay): NCI tumour cell line growth inhibition, 48 h

“And” between values parts separate entries of the source, which are not always exact repeats. Equal values may be shown once.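 Grown in 96-well plates, cells were treated for 48 hours with each compound at five concentrations. Insufficient inhibition: endpoint recorded as highest concentration tested. Here, GI50 denotes the concentration required for 50% inhibition of growth. TGI: concentration producing complete growth inhibition.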

On to `COc1ccc(C2SC(C)C(=O)N2NC(=O)C(O)c2ccccc2)cc1OC` (configuration not stated), for which the GI50 with NCI-H226 lung, with UO-31 renal, in the assay with DU-145 prostate, with OVCAR-3 ovarian, in the assay on SR leukemia and in the assay with RXF 393 renal was more than 100 µM throughout. Also, the GI50 in the assay on K-562 leukemia, in the assay with OVCAR-8 ovarian, with SK-MEL-5 melanoma and in the assay on HCT-15 colon was more than 100 µM in each case. Further, the TGI with NCI-H226 lung, in the assay with UO-31 renal, in the assay on DU-145 prostate, with OVCAR-3 ovarian, with SR leukemia and with RXF 393 renal was more than 100 µM throughout. Further, the TGI with K-562 leukemia, in the assay with OVCAR-8 ovarian, in the assay on SK-MEL-5 melanoma and with HCT-15 colon was more than 100 µM in each case.

For `COc1c2c(nc3ccccc13)-c1cc3c(c(=O)n1C2)COC(=O)C3(O)CC(=O)N1CCOCC1` (configuration not stated), the TGI in the assay with NCI-H226 lung amounted to 22.9 µM; in the assay on UO-31 renal, 68.9 µM; with DU-145 prostate, 17.7 µM; in the assay on OVCAR-3 ovarian, 55 µM; in the assay with SR leukemia, 17.5 µM; in the assay on RXF 393 renal, 26.9 µM. Also, the TGI in the assay on K-562 leukemia is more than 100 µM; in the assay on OVCAR-8 ovarian, 33.8 µM; in the assay on SK-MEL-5 melanoma, 23 µM; with HCT-15 colon it was more than 100 µM.

Take `C[CH2][Sn]([CH2]C)([O]C(=O)C(OC(C)=O)c1ccccc1)[O]C(=O)C(OC(C)=O)c1ccccc1` (configuration not stated): the GI50 in the assay on NCI-H226 lung was 29 µM; with UO-31 renal, 19.5 µM; in the assay with DU-145 prostate it was 94.7 µM; in the assay with OVCAR-3 ovarian, more than 100 µM; in the assay with SR leukemia, 24.3 µM; in the assay with RXF 393 renal, 18.6 µM. For the same compound, the GI50 was 14.6 µM in the assay on K-562 leukemia, more than 100 µM with OVCAR-8 ovarian, 68.1 µM with SK-MEL-5 melanoma and 25.7 µM in the assay on HCT-15 colon. Moreover, the TGI was 92.7 µM in the assay on NCI-H226 lung; 43.4 µM with UO-31 renal; more than 100 µM in the assay with DU-145 prostate; more than 100 µM in the assay with OVCAR-3 ovarian; more than 100 µM with SR leukemia; 33.1 µM in the assay with RXF 393 renal. In addition, the TGI was 45.9 µM in the assay on K-562 leukemia, more than 100 µM in the assay on OVCAR-8 ovarian, more than 100 µM in the assay with SK-MEL-5 melanoma and 82.3 µM in the assay on HCT-15 colon.

For the compound `CCCCN(CCCC)c1ccc(C(=N)c2ccc(N(CCCC)CCCC)cc2)cc1`, the GI50 is 0.593 µM with NCI-H226 lung; 0.32 µM with UO-31 renal; 0.651 µM with DU-145 prostate; 0.283 µM in the assay with OVCAR-3 ovarian; 0.287 µM in the assay with SR leukemia; 0.545 µM in the assay with RXF 393 renal. Moreover, the GI50 is 0.287 µM with K-562 leukemia, 0.396 µM with OVCAR-8 ovarian, 0.547 µM with SK-MEL-5 melanoma and 0.418 µM in the assay on HCT-15 colon. In addition, the TGI worked out at 1.97 µM in the assay with NCI-H226 lung; 1.38 µM in the assay on UO-31 renal; 1.79 µM in the assay with DU-145 prostate; 0.946 µM in the assay on OVCAR-3 ovarian; 1.04 µM with SR leukemia; 1.62 µM in the assay with RXF 393 renal. In addition, the TGI with K-562 leukemia stood at 1.1 µM; in the assay with OVCAR-8 ovarian, 1.37 µM; in the assay on SK-MEL-5 melanoma, 1.61 µM; in the assay on HCT-15 colon it was 1.62 µM.

As for `CCOc1ccccc1N=Nc1c(C)[nH]n(-c2nc(-c3ccccc3)cs2)c1=O`, the GI50 in the assay on NCI-H226 lung was 32.5 µM; with UO-31 renal, more than 65.1 µM; in the assay with DU-145 prostate, 53.2 µM; with OVCAR-3 ovarian, 57.7 µM; in the assay on SR leukemia, more than 100 µM; in the assay with RXF 393 renal it was 16.4 µM. Moreover, the GI50 is more than 100 µM in the assay on K-562 leukemia, 29 µM in the assay on OVCAR-8 ovarian, 41.6 µM in the assay on SK-MEL-5 melanoma and more than 100 µM in the assay with HCT-15 colon. In addition, the TGI in the assay on NCI-H226 lung is more than 100 µM; in the assay on UO-31 renal it was more than 100 µM; in the assay with DU-145 prostate it was more than 100 µM; in the assay on OVCAR-3 ovarian, more than 100 µM; in the assay on SR leukemia, more than 100 µM; in the assay on RXF 393 renal, 38.4 µM. Further, the TGI in the assay with K-562 leukemia, in the assay with OVCAR-8 ovarian, in the assay on SK-MEL-5 melanoma and in the assay on HCT-15 colon was more than 100 µM throughout.

For `CS[C@]12C(=O)C[C@@]3(C)[C@@H](CC[C@]3(O)C(=O)CO)[C@@H]1CCC1=CC(=O)CC[C@@]12C`, the TGI with NCI-H226 lung, in the assay with UO-31 renal, with DU-145 prostate, in the assay on OVCAR-3 ovarian, with SR leukemia and in the assay with RXF 393 renal was more than 100 µM throughout. Besides, the TGI in the assay on K-562 leukemia, in the assay on OVCAR-8 ovarian, with SK-MEL-5 melanoma and in the assay with HCT-15 colon was more than 100 µM in each case.

Regarding `COc1ccc(C(=O)c2cc3c(N)c(C(=O)Nc4cccc5ccccc45)sc3nc2C)cc1`, the GI50 with NCI-H226 lung is 0.332 µM; in the assay on UO-31 renal, 0.422 µM; with DU-145 prostate, 0.19 µM; with OVCAR-3 ovarian it was 0.156 µM; in the assay on SR leukemia, 0.161 µM; with RXF 393 renal, 0.088 µM. Moreover, the GI50 is 0.163 µM in the assay with K-562 leukemia, 0.285 µM with OVCAR-8 ovarian, 0.193 µM in the assay on SK-MEL-5 melanoma and 0.192 µM in the assay on HCT-15 colon. The TGI with NCI-H226 lung, in the assay with UO-31 renal, in the assay with DU-145 prostate, in the assay on OVCAR-3 ovarian, in the assay on SR leukemia and in the assay on RXF 393 renal was more than 50 µM each time. Besides, the TGI in the assay with K-562 leukemia is more than 50 µM; with OVCAR-8 ovarian, more than 50 µM; in the assay on SK-MEL-5 melanoma, 1.4 µM; in the assay on HCT-15 colon, more than 50 µM.

Take `CC1(C)[C@@H](OC(N)=O)[C@H]2O[C@H]2[C@]2(CO)[C@H]3CC[C@]4(C)[C@@H](c5ccc(=O)oc5)[C@@H](Cl)C[C@]4(O)C3=CC[C@@H]12`: the GI50 with NCI-H226 lung is 0.0061 µM; with UO-31 renal, 0.00645 µM; in the assay on DU-145 prostate, 0.00509 µM; in the assay with OVCAR-3 ovarian, 0.00618 µM; with SR leukemia it was 0.00681 µM; with RXF 393 renal, 0.00716 µM. The GI50 was 0.00978 µM with K-562 leukemia, 0.00863 µM with OVCAR-8 ovarian, 0.00681 µM with SK-MEL-5 melanoma and 0.00798 µM in the assay on HCT-15 colon. In addition, the TGI was 0.0152 µM with NCI-H226 lung; 0.0228 µM with UO-31 renal; 0.0106 µM with DU-145 prostate; 0.014 µM in the assay with OVCAR-3 ovarian; 0.0195 µM in the assay with SR leukemia; 0.0829 µM in the assay on RXF 393 renal. Moreover, the TGI with K-562 leukemia was found to be 0.0547 µM; in the assay on OVCAR-8 ovarian it was 0.0297 µM; with SK-MEL-5 melanoma, 0.0195 µM; with HCT-15 colon it was 0.0304 µM.

Take `NC(=S)N/N=C/c1ncccc1N`: the GI50 with NCI-H226 lung is 1.01 µM; with UO-31 renal, 0.293 µM; with DU-145 prostate, 1.04 µM; in the assay with OVCAR-3 ovarian, 2.54 µM; in the assay with RXF 393 renal, 0.489 µM; in the assay with K-562 leukemia it was 4.82 µM. In addition, the GI50 was 0.534 µM in the assay with SK-MEL-5 melanoma and 3.14 µM in the assay with HCT-15 colon. Further, the TGI with NCI-H226 lung is 8.24 µM and > 10 µM; with UO-31 renal it was 3.69 µM and 1.41 µM; in the assay with OVCAR-3 ovarian, more than 56.6 µM; in the assay on SR leukemia it was 18.9 µM and > 10 µM; in the assay on RXF 393 renal, more than 47.5 µM; in the assay with K-562 leukemia, more than 93.4 µM. In addition, the TGI in the assay on OVCAR-8 ovarian is more than 100 µM; in the assay with SK-MEL-5 melanoma, 22.3 µM and > 10 µM; in the assay on HCT-15 colon it was more than 100 µM.

As to `CCCOC(=O)N1CCN(/[N+]([O-])=N/Oc2ccc([N+](=O)[O-])cc2[N+](=O)[O-])CC1`, the GI50 in the assay on NCI-H226 lung is 1.46 µM; in the assay on UO-31 renal it was 3.5 µM; in the assay on DU-145 prostate, 1.81 µM; in the assay with OVCAR-3 ovarian it was 2.29 µM; with SR leukemia it was 0.373 µM; in the assay with RXF 393 renal, 8.67 µM. Moreover, the GI50 in the assay with K-562 leukemia is 0.505 µM; in the assay with OVCAR-8 ovarian it was 9.35 µM; in the assay with SK-MEL-5 melanoma, 2.35 µM; in the assay with HCT-15 colon it was 2.2 µM. Besides, the TGI is 4.3 µM in the assay on NCI-H226 lung; 48.9 µM in the assay on UO-31 renal; 3.53 µM with DU-145 prostate; 4.48 µM in the assay with OVCAR-3 ovarian; more than 100 µM in the assay on SR leukemia; 23.8 µM with RXF 393 renal. For the same compound, the TGI is more than 100 µM in the assay with K-562 leukemia, 72.8 µM with OVCAR-8 ovarian, 7.53 µM in the assay with SK-MEL-5 melanoma and 5.65 µM in the assay with HCT-15 colon.
